# Assay results taken from US11420970B1 (NOVARTIS AG, priority 2019, dated 2022).
# Where two headings read alike, the source gives them in different places.
# What was measured:
# NSD2 [1-1365] = NSD2 [1-1365] (Homo sapiens (Human), UniProt O96028); assay: LC-MS/MS-based NSD2 enzymatic assay (SAH production); type: biochemical; details: read-out: NSD2 IC50
# Outline: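 SAH formed was measured by LC-MS/MS using d4-SAH as internal standard and an SAH calibration curve. Compounds were preincubated 20 min with NSD2 [1-1365] and SAM; mouse-liver nucleosome then started a 90 min room-temperature reaction (8 nM enzyme, 1 μM SAM, 400 nM nucleosome final, pH 8.0), stopped with TFA.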
# [1] = tested on: cellular H3K36me2 level in multiple myeloma cell line KMS11 (t(4;14)+); assay: H3K36me2 cellular ELISA assay in KMS11-Par line; type: cell-based; details: Homo sapiens, KMS-11, ELISA, read-out: H3K36me2 ELISA in KMS11-Par
# Outline: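 After 72 h compound exposure, HCl-extracted histones from KMS11 (t(4;14)+) cells were probed by ELISA for H3K36me2 against total H3 with a chemiluminescence read-out. Cells were plated at 1,250/well in Opti-MEM plus B-27 and N2 the day before. A parallel CellTiter-Glo plate tracked viability.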
# [2] = tested on: cellular H3K36me2 level in multiple myeloma cell line KMS11 (t(4;14)+); assay: H3K36me2 cellular FRET assay in KMS11-Par line; type: cell-based; details: FRET, read-out: H3K36me2 FRET in KMS11-Par
# Protocol: H3K36Me2 Cellular FRET Assay in KMS11-Par Line
# Fluorescence Resonance Energy Transfer (FRET) assay was used to test the ability of candidate compound to reduce cellular H3K36me2 level in multiple myeloma cell line KMS11 (t(4;14)+) (Horizon Discovery Ltd.).
# Cells were treated with tested compounds at the desired concentration for 48 hours. […] Histone extract was incubated with Eu labeled anti-H3K36me2 antibody (abcam #ab ab9049) and d2 labeled anti-H3 antibody (abcam #ab1791) for 1 hour at room temperature. A Eu labeled anti-H3 antibody (CISBIO #64CUS000) was used for loading control. The abundancy of H3K36me2 or total H3 was measured by fluorescence signal on Perkin Elmer Envison machine.
# [3] = NSD2 biochemical activity, class symbols
# [4] = KMS11-Par line (t(4;14)+), 72 hours treatment
# [5] = Homo sapiens, KMS-11, KMS11-Par line, cellular H3K36me2 level
# NSD2 [1-1365], sequence (O96028 whole entry): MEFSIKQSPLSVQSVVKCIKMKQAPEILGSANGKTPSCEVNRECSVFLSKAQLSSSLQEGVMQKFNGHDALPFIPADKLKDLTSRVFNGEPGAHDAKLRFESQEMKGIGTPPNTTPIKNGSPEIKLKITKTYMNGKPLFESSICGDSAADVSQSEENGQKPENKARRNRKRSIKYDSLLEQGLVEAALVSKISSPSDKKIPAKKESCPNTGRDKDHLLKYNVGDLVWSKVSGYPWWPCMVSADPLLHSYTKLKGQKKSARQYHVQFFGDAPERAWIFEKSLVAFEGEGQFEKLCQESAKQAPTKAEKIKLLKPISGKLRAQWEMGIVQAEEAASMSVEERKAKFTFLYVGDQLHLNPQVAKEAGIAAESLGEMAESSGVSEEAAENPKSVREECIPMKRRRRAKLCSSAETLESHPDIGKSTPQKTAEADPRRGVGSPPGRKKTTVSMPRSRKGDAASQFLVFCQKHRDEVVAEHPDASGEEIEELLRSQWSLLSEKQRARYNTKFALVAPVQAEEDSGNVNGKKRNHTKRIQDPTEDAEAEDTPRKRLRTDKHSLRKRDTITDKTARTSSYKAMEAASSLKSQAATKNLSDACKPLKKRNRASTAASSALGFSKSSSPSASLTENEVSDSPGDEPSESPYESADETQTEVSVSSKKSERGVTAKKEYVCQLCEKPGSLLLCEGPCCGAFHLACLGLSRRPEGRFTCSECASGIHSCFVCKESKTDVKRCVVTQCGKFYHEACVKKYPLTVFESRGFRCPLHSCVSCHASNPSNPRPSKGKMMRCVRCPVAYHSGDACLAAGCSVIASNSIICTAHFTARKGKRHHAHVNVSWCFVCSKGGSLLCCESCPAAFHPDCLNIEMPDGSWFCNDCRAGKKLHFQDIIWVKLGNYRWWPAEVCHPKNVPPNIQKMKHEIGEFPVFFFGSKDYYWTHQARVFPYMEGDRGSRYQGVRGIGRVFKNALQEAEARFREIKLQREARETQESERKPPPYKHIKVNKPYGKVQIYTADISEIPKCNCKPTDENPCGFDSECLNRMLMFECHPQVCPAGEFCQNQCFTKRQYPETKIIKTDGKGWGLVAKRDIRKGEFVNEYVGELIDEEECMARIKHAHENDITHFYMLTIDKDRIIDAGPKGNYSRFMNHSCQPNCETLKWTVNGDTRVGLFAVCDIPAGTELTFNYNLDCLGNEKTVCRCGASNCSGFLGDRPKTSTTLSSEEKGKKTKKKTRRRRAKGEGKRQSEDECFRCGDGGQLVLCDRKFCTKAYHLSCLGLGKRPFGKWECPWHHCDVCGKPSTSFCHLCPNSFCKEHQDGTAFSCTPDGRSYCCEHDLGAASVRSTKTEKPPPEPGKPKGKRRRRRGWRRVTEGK
Structure (SMILES),IC50 (NSD2 [1-1365]; [3]) [nM],"IC50 [2, 5] [nM]",other results
"Nc1ncnc2c1ncn2Cc1cc(-c2ccc(F)c(F)c2)ncc1N1CCC[C@](N)(COC(F)F)C1 [Example 41, (R)-9-((5-(3-amino-3-((difluoromethoxy)methyl)piperidin-1-yl)-2-(3,4-difluorophenyl)pyridin-4-yl)methyl)-9H-purin-6-amine]",10 to 1000,1090,"IC50 [1, 4]: 2310 nM"
"CC(C)OC[C@@]1(N)CCCN(c2cnc(-c3ccc(F)cc3)cc2Cn2cnc3c(N)ncnc32)C1 [Example 37, (R)-9-((5-(3-amino-3-(isopropoxymethyl)piperidin-1-yl)-2-(4-fluorophenyl)pyridin-4-yl)methyl)-9H-purin-6-amine]",10 to 1000,614,"IC50 [1, 4]: 1400 nM"
"COC[C@@]1(N)CCCN(c2cnc(-c3cc(Cl)ccc3F)cc2Cn2cnc3c(N)ncnc32)C1 [Example 26, (R)-9-((5-(3-amino-3-(methoxymethyl)piperidin-1-yl)-2-(5-chloro-2-fluorophenyl)pyridin-4-yl)methyl)-9H-purin-6-amine]",1 to 10,248,"IC50 [1, 4]: 375 nM"
"Nc1ncnc2c1ncn2Cc1cc(-c2ccc(F)c(F)c2)ncc1N1CCC[C@](N)(Cc2ccccn2)C1 [Example 54, (S)-9-((5-(3-amino-3-(pyridin-2-ylmethyl)piperidin-1-yl)-2-(3,4-difluorophenyl)pyridin-4-yl)methyl)-9H-purin-6-amine]",1 to 10,450,"IC50 [1, 4]: 780 nM"
"Nc1ncnc2c1ncn2Cc1cc(-c2ccc(F)cc2)ncc1N1CCC[C@](N)(COC2CCC2)C1 [Example 36, (R)-9-((5-(3-amino-3-(cyclobutoxymethyl)piperidin-1-yl)-2-(4-fluorophenyl)pyridin-4-yl)methyl)-9H-purin-6-amine]",10 to 1000,416,–
COC[C@@H]1[C@H](N)CCCN1c1cnc(-c2ccc(C#N)c(F)c2)cc1Cn1cnc2c(N)ncnc21 [Example 9],10 to 1000,9900,–
COC[C@@]1(N)CCCN(c2cnc(-c3ccc(OC)c(F)c3)cc2Cn2cnc3c(N)ncnc32)C1 [Example 46],1 to 10,–,"IC50 ([2]; KMS11-Par line, cellular H3K36me2 level): 315 nM"
"COc1ccc(-c2cc(Cn3cnc4c(N)ncnc43)c(N3CCC[C@](N)(COCC(F)(F)F)C3)cn2)cc1F [Example 39, (R)-9-((5-(3-amino-3-((2,2,2-trifluoroethoxy)methyl)piperidin-1-yl)-2-(3-fluoro-4-methoxyphenyl)pyridin-4-yl)methyl)-9H-purin-6-amine]",10 to 1000,2560,–
"CNC(=O)CC1(N)CCCN(c2cnc(-c3ccc(F)c(F)c3)cc2Cn2cnc3c(N)nccc32)C1 (centres unmarked) [Example 72, 2-(3-amino-1-(4-((4-amino-1H-imidazo[4,5-c]pyridin-1-yl)methyl)-6-(3,4-difluorophenyl)pyridin-3-yl)piperidin-3-yl)-N-methylacetamide]",10 to 1000,250000,–
"CNC(=O)CC1(N)CCCN(c2cnc(-c3ccc(F)c(F)c3)cc2Cn2cnc3c(N)ncc(Cl)c32)C1 (centres unmarked) [Example 67, 2-(3-amino-1-(4-((4-amino-7-chloro-1H-imidazo[4,5-c]pyridin-1-yl)methyl)-6-(3,4-difluorophenyl)pyridin-3-yl)piperidin-3-yl)-N-methylacetamide]",10 to 1000,4250,–
"N#Cc1ccc(-c2cc(Cn3cnc4c(N)ncnc43)c(N3CCC[C@@H](N)C3)cn2)cc1Cl [Example 7, (R)-4-(4-((6-amino-9H-purin-9-yl)methyl)-5-(3-aminopiperidin-1-yl)pyridin-2-yl)-2-chlorobenzonitrile]",10 to 1000,15100,–
"COc1ccc(-c2cc(Cn3cnc4c(N)ncnc43)c(N3CCCC(N)(C(C)F)C3)cn2)cc1F (centres unmarked) [Example 295, 9-((5-(3-amino-3-(1-fluoroethyl)piperidin-1-yl)-2-(3-fluoro-4-methoxyphenyl)pyridin-4-yl)methyl)-9H-purin-6-amine]",–,–,"IC50 (NSD2 [1-1365]): 10 to 1000 nM; IC50 ([1]; KMS11-Par line, 72 hours): 1860 nM; IC50 ([2]; Homo sapiens, KMS-11, KMS11-Par line): 2330 nM"
"COC[C@@]1(N)CCCN(c2cnc(-c3ccc(OC)cc3F)cc2Cn2cnc3c(N)ncnc32)C1 [Example 33, (R)-9-((5-(3-amino-3-(methoxymethyl)piperidin-1-yl)-2-(2-fluoro-4-methoxyphenyl)pyridin-4-yl)methyl)-9H-purin-6-amine]",1 to 10,1030,–
"COC(=O)[C@@]1(N)CCCN(c2cnc(-c3cccc(F)c3)cc2Cn2cnc3c(N)ncnc32)C1 [Example 79, methyl (R)-3-amino-1-(4-((6-amino-9H-purin-9-yl)methyl)-6-(3-fluorophenyl)pyridin-3-yl)piperidine-3-carboxylate]",1 to 10,473,–
"CO/N=C(\C)C1(N)CCCN(c2cnc(-c3ccc(OC)c(F)c3)cc2Cn2cnc3c(N)ncnc32)C1 (centres unmarked) [Example 96, (E)-1-(3-amino-1-(4-((6-amino-9H-purin-9-yl)methyl)-6-(3-fluoro-4-methoxyphenyl)pyridin-3-yl)piperidin-3-yl)ethan-1-one O-methyl oxime]",10 to 1000,2400,–
"Nc1ncnc2c1ncn2Cc1cc(-c2cccc(F)c2)ncc1N1CCC[C@](N)(COC(F)F)C1 [Example 40, (R)-9-((5-(3-amino-3-((difluoromethoxy)methyl)piperidin-1-yl)-2-(3-fluorophenyl)pyridin-4-yl)methyl)-9H-purin-6-amine]",10 to 1000,770,–
"N#Cc1ccc(-c2cc(Cn3cnc4c(N)ncnc43)c(N3CC[C@@H](F)[C@@H](N)C3)cn2)cc1F [Example 13, 4-(5-((3S,4R)-3-amino-4-fluoropiperidin-1-yl)-4-((6-amino-9H-purin-9-yl)methyl)pyridin-2-yl)-2-fluorobenzonitrile]",10 to 1000,20700,–
"COc1ccc(-c2cc(Cn3cnc4c(N)ncnc43)c(N3CCC[C@](N)(COC(C)C)C3)cn2)cc1F [Example 25, (R)-9-((5-(3-amino-3-(isopropoxymethyl)piperidin-1-yl)-2-(3-fluoro-4-methoxyphenyl)pyridin-4-yl)methyl)-9H-purin-6-amine]",1 to 10,995,–
"Nc1ncnc2c1ncn2Cc1cc(-c2ccc(F)c(F)c2)ncc1N1CCC[C@](N)(COCC(F)(F)F)C1 [Example 43, (R)-9-((5-(3-amino-3-((2,2,2-trifluoroethoxy)methyl)piperidin-1-yl)-2-(3,4-difluorophenyl)pyridin-4-yl)methyl)-9H-purin-6-amine]",10 to 1000,1240,–
"Nc1ncnc2c1ncn2Cc1cc(-c2cccc(F)c2)ncc1N1CCC(F)(F)C(N)C1 (centres unmarked) [Example 17, 9-((5-(3-amino-4,4-difluoropiperidin-1-yl)-2-(3-fluorophenyl)pyridin-4-yl)methyl)-9H-purin-6-amine]",> 1000,154000,–
"Nc1ncnc2c1ncn2Cc1cc(-c2ccc(F)cc2)ncc1N1CCC[C@](N)(CC(F)F)C1 [Example 71, (S)-9-((5-(3-amino-3-(2,2-difluoroethyl)piperidin-1-yl)-2-(4-fluorophenyl)pyridin-4-yl)methyl)-9H-purin-6-amine]",10 to 1000,849,–
"COc1ccc(-c2cc(Cn3cnc4c(N)ncc(Cl)c43)c(N3CCC[C@@H](N)C3)cn2)cc1F [Example 19, (R)-1-((5-(3-aminopiperidin-1-yl)-2-(3-fluoro-4-methoxyphenyl)pyridin-4-yl)methyl)-7-chloro-1H-imidazo[4,5-c]pyridin-4-amine]",10 to 1000,3900,–
"Nc1ncnc2c1ncn2Cc1cc(-c2cccc(Cl)c2)ncc1N1CC[C@@H](F)[C@@H](N)C1 [Example 12, 9-((5-((3S,4R)-3-amino-4-fluoropiperidin-1-yl)-2-(3-chlorophenyl)pyridin-4-yl)methyl)-9H-purin-6-amine]",10 to 1000,12200,–
"Nc1ncnc2c1ncn2Cc1cc(-c2cccc(F)c2)ncc1N1CCC[C@](N)(CC(=O)O)C1 [Example 58, (S)-2-(3-amino-1-(4-((6-amino-9H-purin-9-yl)methyl)-6-(3-fluorophenyl)pyridin-3-yl)piperidin-3-yl)acetic acid]",1 to 10,2640,–
